Experimental data reported in patent US20250353864A1, “INDAZOLE CONTAINING MACROCYCLES AND THEIR USE” (BLOSSOMHILL THERAPEUTICS, INC., priority 2022, published 2025).

Columns and labels:
Type in all cases: biochemical
EGFR Δ746-750 mutant = EGFR Δ746-750 mutant (Homo sapiens (Human), UniProt P00533, DEL746-750); assay: HotSpot radiometric kinase assay, EGFR Δ746-750 mutant; conditions: 10 μM ATP
Method in brief: (§1)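 Radiometric filter-binding read-out: incorporated 33P was retained on P81 ion-exchange paper after washing away unbound phosphate. Reactions ran 120 min at room temperature with 10 μM final ATP, following ~20 min compound preincubation in Hepes pH 7.5 buffer containing 1% DMSO. IC50 from fitted curves.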

CLK2 = CLK2 (Homo sapiens (Human), UniProt P49760); assay: Inhibition of CLK2 kinase activity evaluated at Nanosyn (ADP-Glo); conditions: ADP-Glo luminescence
Method in brief: (§2)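 ADP-Glo luminescence read-out of ADP produced by each kinase acting on substrate, with ATP added to start the reaction. Buffer: 100 mM HEPES pH 7.5, 5 mM MgCl2, Triton X-100, BSA, DTT, phosphatase inhibitors; DMSO 1%. Inhibition calculated against no-inhibitor and no-enzyme controls.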

EGFR L858R mutant = EGFR L858R mutant (Homo sapiens (Human), UniProt P00533, L858R); assay: HotSpot radiometric kinase assay, EGFR L858R mutant; conditions: 10 μM ATP
Sequence of EGFR L858R mutant (P00533 25-1210 L858R): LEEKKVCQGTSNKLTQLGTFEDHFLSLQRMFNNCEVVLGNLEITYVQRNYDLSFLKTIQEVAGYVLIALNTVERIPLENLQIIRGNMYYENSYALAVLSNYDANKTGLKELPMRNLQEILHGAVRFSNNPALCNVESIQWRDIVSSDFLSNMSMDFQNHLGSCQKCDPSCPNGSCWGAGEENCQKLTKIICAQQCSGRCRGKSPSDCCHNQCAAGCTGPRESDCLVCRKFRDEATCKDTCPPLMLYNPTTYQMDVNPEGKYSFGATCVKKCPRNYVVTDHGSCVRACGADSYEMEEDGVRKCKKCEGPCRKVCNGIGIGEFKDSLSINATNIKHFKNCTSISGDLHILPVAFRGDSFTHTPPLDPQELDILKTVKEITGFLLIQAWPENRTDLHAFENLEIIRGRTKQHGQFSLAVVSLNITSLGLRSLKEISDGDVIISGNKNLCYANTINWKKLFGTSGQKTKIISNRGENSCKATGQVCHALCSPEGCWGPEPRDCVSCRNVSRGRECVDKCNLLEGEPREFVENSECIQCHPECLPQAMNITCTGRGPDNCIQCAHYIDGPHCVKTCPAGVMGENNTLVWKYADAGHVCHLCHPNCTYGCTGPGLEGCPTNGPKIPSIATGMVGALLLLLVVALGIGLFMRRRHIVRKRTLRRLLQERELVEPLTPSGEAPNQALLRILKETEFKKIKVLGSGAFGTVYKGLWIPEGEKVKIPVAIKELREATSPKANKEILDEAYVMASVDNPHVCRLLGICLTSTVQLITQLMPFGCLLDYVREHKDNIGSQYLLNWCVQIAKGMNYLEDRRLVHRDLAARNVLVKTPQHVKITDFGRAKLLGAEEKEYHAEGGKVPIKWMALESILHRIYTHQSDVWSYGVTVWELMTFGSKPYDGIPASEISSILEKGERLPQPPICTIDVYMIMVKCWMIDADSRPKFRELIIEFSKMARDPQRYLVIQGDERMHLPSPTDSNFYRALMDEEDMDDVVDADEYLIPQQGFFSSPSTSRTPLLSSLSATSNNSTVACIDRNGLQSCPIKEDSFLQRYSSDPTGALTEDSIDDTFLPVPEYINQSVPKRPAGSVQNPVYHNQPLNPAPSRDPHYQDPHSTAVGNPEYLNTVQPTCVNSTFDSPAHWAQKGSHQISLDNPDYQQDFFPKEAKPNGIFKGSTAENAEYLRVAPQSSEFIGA
Method in brief: as §1

EGFR L858R/T790M mutant = EGFR L858R/T790M mutant (Homo sapiens (Human), UniProt P00533, L858R/T790M); assay: HotSpot radiometric kinase assay, EGFR L858R/T790M mutant; conditions: 10 μM ATP
Sequence of EGFR L858R/T790M mutant (P00533 25-1210 T790M/L858R): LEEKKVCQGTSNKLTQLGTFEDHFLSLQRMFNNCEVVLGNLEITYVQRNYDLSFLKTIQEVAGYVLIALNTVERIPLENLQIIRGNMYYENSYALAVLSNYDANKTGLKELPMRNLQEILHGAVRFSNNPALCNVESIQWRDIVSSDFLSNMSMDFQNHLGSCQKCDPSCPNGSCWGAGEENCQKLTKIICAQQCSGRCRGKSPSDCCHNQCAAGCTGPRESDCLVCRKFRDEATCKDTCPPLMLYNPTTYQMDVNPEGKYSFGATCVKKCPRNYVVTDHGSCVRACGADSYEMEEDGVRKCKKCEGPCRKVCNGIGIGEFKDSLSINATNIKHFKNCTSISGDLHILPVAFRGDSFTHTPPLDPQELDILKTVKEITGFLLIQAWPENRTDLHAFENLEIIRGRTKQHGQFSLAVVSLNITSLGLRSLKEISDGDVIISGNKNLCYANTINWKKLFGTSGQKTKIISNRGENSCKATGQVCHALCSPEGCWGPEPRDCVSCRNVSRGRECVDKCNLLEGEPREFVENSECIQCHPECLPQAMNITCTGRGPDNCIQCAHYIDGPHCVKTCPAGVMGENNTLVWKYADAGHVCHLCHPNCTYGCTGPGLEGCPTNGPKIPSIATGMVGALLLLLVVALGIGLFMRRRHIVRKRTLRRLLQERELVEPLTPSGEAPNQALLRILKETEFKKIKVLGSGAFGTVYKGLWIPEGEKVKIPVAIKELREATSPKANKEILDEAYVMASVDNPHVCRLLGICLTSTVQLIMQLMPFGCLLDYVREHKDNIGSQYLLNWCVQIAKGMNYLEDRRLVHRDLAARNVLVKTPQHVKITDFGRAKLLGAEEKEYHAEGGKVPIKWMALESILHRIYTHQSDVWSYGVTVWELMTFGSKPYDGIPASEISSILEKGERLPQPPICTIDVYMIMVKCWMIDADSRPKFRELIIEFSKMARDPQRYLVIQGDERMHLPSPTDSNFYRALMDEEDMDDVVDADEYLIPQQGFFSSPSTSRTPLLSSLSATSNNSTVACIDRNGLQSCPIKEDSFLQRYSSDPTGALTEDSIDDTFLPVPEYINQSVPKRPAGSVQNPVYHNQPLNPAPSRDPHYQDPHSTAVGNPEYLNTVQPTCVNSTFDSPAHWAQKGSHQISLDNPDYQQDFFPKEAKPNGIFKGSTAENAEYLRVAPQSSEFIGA
Method in brief: as §1

[1] = target: EGFR Δ746-750/C797S mutant (Homo sapiens (Human), UniProt P00533, C797S/DEL746-750); assay: HotSpot radiometric kinase assay, EGFR Δ746-750/C797S mutant; conditions: 10 μM ATP
Sequence of EGFR Δ746-750/C797S mutant (P00533 other isoform, or with tags, fused parts or gaps C797S/del 1-668/del 746-750 limits assumed): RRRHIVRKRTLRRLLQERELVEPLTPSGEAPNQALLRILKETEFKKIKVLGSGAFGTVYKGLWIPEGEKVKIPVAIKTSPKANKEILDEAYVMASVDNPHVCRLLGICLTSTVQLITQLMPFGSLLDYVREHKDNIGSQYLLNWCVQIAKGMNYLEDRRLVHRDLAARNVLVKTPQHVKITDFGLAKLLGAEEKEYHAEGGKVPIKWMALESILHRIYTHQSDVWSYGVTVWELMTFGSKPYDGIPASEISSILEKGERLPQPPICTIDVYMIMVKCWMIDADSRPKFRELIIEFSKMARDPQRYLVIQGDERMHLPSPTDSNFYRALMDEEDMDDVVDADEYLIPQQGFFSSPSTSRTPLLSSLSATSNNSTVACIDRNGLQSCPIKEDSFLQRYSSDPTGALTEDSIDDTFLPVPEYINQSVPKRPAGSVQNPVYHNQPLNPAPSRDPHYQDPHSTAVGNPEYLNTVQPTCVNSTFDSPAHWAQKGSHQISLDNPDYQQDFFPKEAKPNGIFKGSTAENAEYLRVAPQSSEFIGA
Method in brief: as §1

CLK3 = CLK3 (Homo sapiens (Human), UniProt P49761); assay: Inhibition of CLK3 kinase activity evaluated at Nanosyn (ADP-Glo); conditions: ADP-Glo luminescence
Method in brief: as §2

[2] = target: EGFR L858R/T790M/C797S mutant (Homo sapiens (Human), UniProt P00533, C797S/L858R/T790M); assay: HotSpot radiometric kinase assay, EGFR L858R/T790M/C797S mutant; conditions: 10 μM ATP
Method in brief: as §1

EGFR WT = EGFR WT (Homo sapiens (Human), UniProt P00533); assay: HotSpot radiometric kinase assay (Reaction Biology), EGFR WT; conditions: 10 μM ATP
Method in brief: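 Compounds were preincubated ~20 min with kinase/substrate in pH 7.5 Hepes buffer (MgCl2, EGTA, Brij35, BSA, Na3VO4, DTT, 1% DMSO), then ATP plus 33P-ATP was added to 10 μM final. After 120 min at room temperature, reactions were spotted on P81 filters and washed; IC50 values came from curve fits.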

CLK1 = CLK1 (Homo sapiens (Human), UniProt P49759); assay: Inhibition of CLK1 kinase activity evaluated at Nanosyn (ADP-Glo); conditions: ADP-Glo luminescence
Sequence of CLK1 (P49759 whole entry): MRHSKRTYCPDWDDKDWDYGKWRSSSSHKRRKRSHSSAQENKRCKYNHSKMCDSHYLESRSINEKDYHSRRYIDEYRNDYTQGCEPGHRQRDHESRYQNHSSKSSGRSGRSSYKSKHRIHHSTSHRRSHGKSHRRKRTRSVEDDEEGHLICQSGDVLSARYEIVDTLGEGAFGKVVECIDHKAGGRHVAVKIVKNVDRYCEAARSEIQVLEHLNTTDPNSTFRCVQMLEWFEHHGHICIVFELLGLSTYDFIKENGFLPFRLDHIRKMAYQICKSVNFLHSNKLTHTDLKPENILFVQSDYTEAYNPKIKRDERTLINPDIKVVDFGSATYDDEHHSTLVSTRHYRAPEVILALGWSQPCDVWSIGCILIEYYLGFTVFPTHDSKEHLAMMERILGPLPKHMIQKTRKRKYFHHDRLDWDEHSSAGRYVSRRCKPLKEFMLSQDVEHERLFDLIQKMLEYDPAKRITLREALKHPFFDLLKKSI
Method in brief: as §2

CLK4 = CLK4 (Homo sapiens (Human), UniProt Q9HAZ1); assay: Inhibition of CLK4 kinase activity evaluated at Nanosyn (ADP-Glo); conditions: ADP-Glo luminescence
Sequence of CLK4 (Q9HAZ1 whole entry): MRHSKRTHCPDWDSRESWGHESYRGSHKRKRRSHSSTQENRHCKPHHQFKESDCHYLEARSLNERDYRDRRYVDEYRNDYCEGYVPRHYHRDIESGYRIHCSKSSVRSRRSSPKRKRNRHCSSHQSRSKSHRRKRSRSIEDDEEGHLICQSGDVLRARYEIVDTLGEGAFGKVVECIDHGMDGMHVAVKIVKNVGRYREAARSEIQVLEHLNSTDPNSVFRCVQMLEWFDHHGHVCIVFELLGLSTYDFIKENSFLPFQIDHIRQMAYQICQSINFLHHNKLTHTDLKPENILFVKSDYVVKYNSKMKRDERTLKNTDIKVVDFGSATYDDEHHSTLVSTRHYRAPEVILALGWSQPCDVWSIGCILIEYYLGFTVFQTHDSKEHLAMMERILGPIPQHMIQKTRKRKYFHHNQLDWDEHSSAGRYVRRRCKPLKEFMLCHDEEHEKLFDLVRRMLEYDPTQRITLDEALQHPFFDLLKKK
Method in brief: as §2

EGFR (D770_N771insNPG) = EGFR (D770_N771insNPG) (Homo sapiens (Human), UniProt P00533, INS770NPG); assay: HotSpot radiometric kinase assay, EGFR (D770_N771insNPG); conditions: 10 μM ATP, read-out: EGFR (Δ770_N771insNPG) IC50
Sequence of EGFR (D770_N771insNPG) (P00533 other isoform, or with tags, fused parts or gaps del 1-668/ins NPG behind 770 limits assumed): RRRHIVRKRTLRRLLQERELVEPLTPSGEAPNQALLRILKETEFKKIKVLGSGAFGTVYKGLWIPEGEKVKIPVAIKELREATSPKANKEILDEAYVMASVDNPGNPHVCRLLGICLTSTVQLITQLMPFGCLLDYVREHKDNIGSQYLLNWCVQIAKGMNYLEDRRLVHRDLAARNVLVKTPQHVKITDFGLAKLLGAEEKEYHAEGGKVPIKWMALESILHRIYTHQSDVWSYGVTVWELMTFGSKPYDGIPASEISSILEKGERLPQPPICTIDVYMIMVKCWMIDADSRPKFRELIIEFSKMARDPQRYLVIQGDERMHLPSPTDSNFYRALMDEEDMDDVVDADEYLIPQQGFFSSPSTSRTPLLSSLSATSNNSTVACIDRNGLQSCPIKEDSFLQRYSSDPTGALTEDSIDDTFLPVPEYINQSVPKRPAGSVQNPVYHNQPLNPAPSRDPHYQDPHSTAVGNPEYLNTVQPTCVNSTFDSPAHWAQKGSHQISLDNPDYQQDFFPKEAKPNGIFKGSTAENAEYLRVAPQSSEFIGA
Method in brief: as §1

Sequence of EGFR Δ746-750 mutant (P00533 other isoform, or with tags, fused parts or gaps del 1-668/del 746-750 limits assumed): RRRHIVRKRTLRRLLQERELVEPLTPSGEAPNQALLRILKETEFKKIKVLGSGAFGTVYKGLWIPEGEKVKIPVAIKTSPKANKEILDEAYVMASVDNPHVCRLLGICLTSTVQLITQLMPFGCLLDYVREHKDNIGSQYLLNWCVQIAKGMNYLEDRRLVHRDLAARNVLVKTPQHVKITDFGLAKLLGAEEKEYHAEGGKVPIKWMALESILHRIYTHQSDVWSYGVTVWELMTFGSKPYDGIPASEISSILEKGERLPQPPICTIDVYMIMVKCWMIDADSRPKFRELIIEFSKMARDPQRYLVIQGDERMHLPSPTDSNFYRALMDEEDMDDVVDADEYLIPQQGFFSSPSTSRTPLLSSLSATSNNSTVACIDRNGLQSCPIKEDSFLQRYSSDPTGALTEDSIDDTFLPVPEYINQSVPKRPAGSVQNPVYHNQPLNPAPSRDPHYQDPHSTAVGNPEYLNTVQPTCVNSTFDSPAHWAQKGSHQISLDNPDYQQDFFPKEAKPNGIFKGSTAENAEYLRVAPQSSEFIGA

| IC50 (EGFR Δ746-750 mutant) | IC50 (CLK2) | IC50 (EGFR L858R mutant) | IC50 (EGFR L858R/T790M mutant) | IC50 [1] | IC50 (CLK3) | IC50 [2] | IC50 (EGFR WT) | IC50 (CLK1) | IC50 (CLK4) | IC50 (EGFR (D770_N771insNPG)) | Compound |
| --- | --- | --- | --- | --- | --- | --- | --- | --- | --- | --- | --- |
| 1.88 nM | 0.05 nM | 1.47 nM | 0.41 nM | 1.93 nM | 168 nM | 0.7 nM | 8.81 nM | 0.21 nM | 0.55 nM | 24.5 nM | Cc1nn(C)c2c1/C=C/c1n[nH]c3ccc(cc13)-c1cnn(C)c1O[C@@H](C)CN(C)[C@@H]2C (single isomer, unassigned) [Example 144] |
| 13.6 nM | 0.3 nM | 34.4 nM | 1.42 nM | 19.5 nM | 38.2 nM | 1.08 nM | 63 nM | 0.22 nM | 0.41 nM | 246 nM | CCOc1nn(C)c2c1/C=C/c1n[nH]c3ccc(cc13)-c1cnn(C)c1O[C@@H]1CCCN(C2)C1 [Example 160, (10R,19E)-18-ethoxy-8,16-dimethyl-2,8,10,11,12,13,15,16-octahydro-3,5-etheno-10,14-methanotripyrazolo[3,4-h:3′,4′-l:4″,3″- p][1,6]oxazacycloheptadecine] |
| 4.84 nM | 0.02 nM | 6.08 nM | 0.47 nM | 2.33 nM | 72.4 nM | 0.44 nM | 28.5 nM | 0.1 nM | 0.19 nM | 19 nM | CCN1Cc2c(c(C)nn2C)/C=C/c2n[nH]c3ccc(cc23)-c2cnn(C)c2O[C@@H](C)C1 [Example 165, (10S,17E)-12-ethyl-8,10,14,16-tetramethyl-2,10,11,12,13,14-hexahydro-8H-3,5-ethenotripyrazolo[3,4-f:3′,4′-j:4″,3″-n][1,4]oxazacyclopentadecine] |
| 74.8 nM | 0.14 nM | 144 nM | 13.5 nM | 133 nM | 236 nM | 34.5 nM | 543 nM | 0.1 nM | 0.25 nM | 541 nM | Cc1nn(C)c2c1/C=C/c1n[nH]c3ccc(cc13)-c1cnn(C)c1OCCN(C)C2 [Example 43, (17E)-8,12,14,16-tetramethyl-2,10,11,12,13,14-hexahydro-8H-3,5-ethenotripyrazolo[3,4-f:3′,4′-j:4″,3″- n][1,4]oxazacyclopentadecine] |
| 38.3 nM | 0.62 nM | 7.5 nM | 0.5 nM | 8.74 nM | 977 nM | 1.32 nM | 67.2 nM | 0.85 nM | 0.57 nM | 86 nM | CCOc1nn([C@H](C)CO)c2c1/C=C/c1n[nH]c3ccc(cc13)-c1cnn(C)c1O[C@@H](C)CN(C)C2 [Example 171, (2R)-2-[(10S,17E)-16-ethoxy-8,10,12-trimethyl-2,8,10,11,12,13-hexahydro-14H-3,5-ethenotripyrazolo[3,4-f:3′,4′-j:4″,3″-n][1,4]oxazacyclopentadecin-14-yl]propan-1-ol] |
| 0.3 nM | 0.04 nM | 0.22 nM | 0.48 nM | 0.72 nM | 23 nM | 0.46 nM | 0.87 nM | 0.24 nM | 0.52 nM | 2.55 nM | CCOc1nn(CCO)c2c1/C=C/c1n[nH]c3ccc(cc13)-c1cnn(C)c1O[C@@H](C)CN(C(C)C)C2 [Example 151, 2-[(10S,17E)-16-ethoxy-8,10-dimethyl-12-(propan-2-yl)-2,8,10,11,12,13-hexahydro-14H-3,5-ethenotripyrazolo[3,4-f:3′,4′-j:4″,3″-n][1,4]oxazacyclopentadecin-14-yl]ethan-1-o] |
| 0.95 nM | 0.27 nM | 1.18 nM | 3.01 nM | 1.98 nM | 9.89 nM | 6.62 nM | 1.43 nM | 0.82 nM | 1.6 nM | 4.05 nM | CC(C)Oc1nn(CCO)c2c1/C=C/c1n[nH]c3cc(F)c(cc13)-c1cnn(C)c1O[C@H](C)[C@H]1CCCN1C2 (single isomer, unassigned) [Example 255] |
| 40.1 nM | 4.29 nM | 66.5 nM | 9.39 nM | 22.9 nM | 1000 nM | 21.8 nM | 329 nM | 0.9 nM | 1.3 nM | 500 nM | CCOc1nn(CCO)c2c1/C=C/c1n[nH]c3ccc(cc13)-c1cnn(C)c1OC[C@H](CC)N(C)C2 [Example 259, 2-[(11S,17E)-16-ethoxy-11-ethyl-8,12-dimethyl-2,8,10,11,12,13-hexahydro-14H-3,5-ethenotripyrazolo[3,4-f:3′,4′-j:4″,3″-n][1,4]oxazacyclopentadecin-14-yl]ethan-1-ol] |
| 0.61 nM | 0.04 nM | 1.31 nM | 0.21 nM | 2.75 nM | 0.19 nM | 0.98 nM | 8.28 nM | 0.17 nM | 0.5 nM | 1.12 nM | CN1CCC(c2ccc3c(c2)O[C@@H]2CCN(CCOc4c(cnn4C)-c4ccc5[nH]nc(c5c4)/C=C/3)C2=O)CC1 [Example 112, (10R,16E)-3-methyl-13-(1-methylpiperidin-4-yl)-3,5,6,9,10,19-hexahydro-8H-20,22-etheno-7,10-methanodipyrazolo[3,4-i:4′,3′-m][1,8,5]benzodioxazacyclooctadecin-25-one] |
| 116 nM | 0.36 nM | 310 nM | 36.6 nM | 30.2 nM | 1000 nM | 25.9 nM | 908 nM | 0.38 nM | 0.43 nM | 329 nM | Cn1ncc2c1OCCN1CC[C@H](C1)Oc1ccccc1/C=C/c1n[nH]c3ccc-2cc13 [Example 170, (10R,16E)-3-methyl-3,5,6,9,10,19-hexahydro-8H-20,22-etheno-7,10-methanodipyrazolo[3,4-i:4′,3′-m][1,8,5]benzodioxazacyclooctadecine] |
| 6.59 nM | 2.13 nM | 7.8 nM | 0.6 nM | 4.8 nM | 79.2 nM | 1.02 nM | 55.3 nM | 1.37 nM | 1.55 nM | 129 nM | CCOc1nn(CCO)c2c1/C=C/c1n[nH]c3ccc(cc13)-c1cnn(C)c1O[C@@H]1CCCN(C2)C1 [Example 137, 2-[(10R,19E)-18-ethoxy-8-methyl-2,10,11,12,13,15-hexahydro-3,5-etheno-10,14-methanotripyrazolo[3,4-h:3′,4′-l:4″,3″-p][1,6]oxazacycloheptadecin-16(8H)-yl]ethan-1-ol] |
| 1.22 nM | 0.23 nM | 1.56 nM | 0.48 nM | 1.26 nM | 17.2 nM | 2.17 nM | 5.72 nM | 0.5 nM | 1.04 nM | 15.8 nM | CC(C)Oc1nn(CCO)c2c1/C=C/c1n[nH]c3ccc(cc13)-c1cnn(C)c1O[C@@H](CO)CN(C)C2 [Example 258, 2-{(10R,17E)-10-(hydroxymethyl)-8,12-dimethyl-16-[(propan-2-yl)oxy]-2,8,10,11,12,13-hexahydro-14H-3,5-ethenotripyrazolo[3,4-f:3′,4′-j:4″,3″-n][1,4]oxazacyclopentadecin-14-yl}ethan-1-ol] |
